Measured values published in patent publication US20140142170A1, “COMPOSITION AND METHOD FOR INFLUENCING ENERGY METABOLISM AND TREATING METABOLIC AND OTHER DISORDERS” (SIRTUIN VALLEY OY, priority 2010, published 2014).
“And” between values parts separate entries of the source, which are not always exact repeats. Equal entries are not always repeated. “Also recorded” adds a separate entry of the source.

Legend:
Assay type in all cases: cell-based
[1] = system: SIRT1; test: SIRT1 protein expression, immunoblot and densitometry in 3T3 L1 preadipocytes; conditions: 24 hours; for SIRT1 protein expression compared to control: 3T3 L1 cells, 60 μM each compound; for SIRT1 protein expression vs control: 3T3L1 preadipocytes, 100 μM
Procedure: (§1) 3T3L1 cells were purchased from American Type Culture Collection (Manassas, Va., USA) and cultured in DMEM media containing 4.5 g/l glucose supplemented with 10% fetal bovine serum (Hyclone), 2 mM L-glutamine (Gibco), 100 U/ml penicillin, and 100 μg/ml streptomycin (Gibco). The cells were cultured at 37° C. in a humidified atmosphere with 10% CO2.
The 3T3L1 cells were plated at 6×10^4 cells/well in 12 well plates and incubated at 37° C. in a humidified atmosphere with 10% CO2. The media was removed after 24 hours and the cells were treated with 60 μM GR24 individually and in combination with […] and 60 μM pinosylvin, and incubated for 24 hours at 37° C. in a humidified atmosphere with 10% CO2. The media was removed, cells were washed with PBS, and cell lysates were collected on ice. Proteins were extracted using RIPA buffer along with protease and phosphatase inhibitors. Lysates were centrifuged for 30 min at high speed; supernatant was collected and stored at […] until further analysis. The vehicle controls were 3T3 L1 cells without any treatment with drugs or other compounds. The drugs or compounds that were used in all the experiments were dissolved or diluted in dimethylsulfoxide (DMSO) as diluent. In all experiments, the controls were treated with the same volume of DMSO as was used to dissolve drugs or compounds in compound-treated cells to show and ensure that the actual change in protein expression in different treatments was due solely to the compounds or combination of compounds and not to the DMSO.
(§2) Protein concentrations were measured using a BCA (bicinchoninic acid) protein assay kit (Cat.#23225; Pierce, Rockford, Ill.). Twenty (20) μg/lane of total cellular protein samples containing NuPAGE LDS sample buffer (Invitrogen) and reducing agent were loaded into 4-12% NuPAGE Bis-Tris gels (Invitrogen), subjected to gel electrophoresis, and transferred to polyvinylidene fluoride membranes (Amersham). For SIRT1 proteins, membranes were blocked in 0.05% TBS-Tween with 3% milk for 1 hour, incubated overnight at +4° C. with SIRT1 primary antibodies (Cat.#07-131, Millipore). For phospho-AMPKα and AMPKα proteins, blocking was done for 1 hour in 0.1% TBS-Tween with 5% milk. The membranes were incubated overnight at +4° C. with phospho-AMPKα (Cat. #2535, Cell Signaling) and AMPKα (Cat.#2532, Cell Signaling) primary antibodies. Horseradish peroxidase-conjugated anti-rabbit antibodies (Cat. #NA934V GE Health Care, Amersham, U.K) were used as secondary antibodies. For α-tubulin (loading control), membranes were blocked in 0.05% PBS-Tween with 3% milk for 1 hour, incubated with α-tubulin (Cat.# B-5-1-2, Sigma) primary antibodies for 1 hour at room temperature and horseradish peroxidase-conjugated anti-mouse (Cat. # NA 931V GE Health Care, Amersham, U.K.) IgG antibodies were used as secondary antibodies.
(§3) The membranes were developed using chemiluminescence (ECL plus, GE Health Care), and images were captured in an Image Quant RT-ECL machine (version 1.0.1; GE Health Care). Densitometry and quantification of the bands were done by applying Quantity One software (Bio-Rad). The expression levels of the proteins were normalized to α-tubulin protein levels.
3T3L1 cells were purchased from American Type Culture Collection (Manassas, Va., USA) and cultured in DMEM media containing 4.5 g/l glucose supplemented with 10% fetal bovine serum (Hyclone), 2 mM L-glutamine (Gibco) and 100 U/ml penicillin, 100 μg/ml streptomycin (Gibco). The cells were cultured at 37° C. in a humidified atmosphere with 10% CO2. 3T3L1 preadipocytes were plated at 1×10^5 cells/well in 6 well plates and incubated at 37° C. in a humidified atmosphere with 10% CO2. […] In all experiments, the controls were treated with the same volume of DMSO as was used to dissolve compounds in compound-treated cells to show and ensure that the actual change in protein expression in different treatments was only due to the compounds DMSO. […]

[2] = system: PGC-1α; test: PGC-1α protein expression, immunoblot and densitometry in 3T3 L1 preadipocytes; conditions: 60 μM, 24 hours, control = 100%
Procedure: as §1, with “CO2. […]” for “CO2.”
as §2, §3
PGC-1α as an indicator of SIRT1 activity: PGC-1α has been extensively described as a master regulator of mitochondrial biogenesis. […] When SIRT1 protein expression is induced, it interacts with and deacetylates PGC-1α in an NAD-dependent manner. Thus SIRT1 acts as a modulator of PGC-1a (Rodgers J T et al, Nature 2005). The effects of resveratrol, a nonselective SIRT1 activator, were associated with an induction of genes for oxidative phosphorylation and mitochondrial biogenesis, and were largely explained by a resveratrol-mediated decrease in PGC-1α acetylation and an increase in PGC-1α activity (Lagouge M, Cell 2006). Therefore, PGC-1α protein expression serves as an indicator of SIRT1 activity.
3T3L1 cells were purchased from American Type Culture Collection (Manassas, Va., USA) and cultured in DMEM media containing 4.5 g/l glucose supplemented with 10% fetal bovine serum (Hyclone), 2 mM L-glutamine (Gibco) and 100 U/ml penicillin, 100 μg/ml streptomycin (Gibco). The cells were cultured at 37° C. in a humidified atmosphere with 10% CO2. 3T3L1 preadipocytes were plated at 1×10^5 cells/well in 6 well plates and incubated at 37° C. in a humidified atmosphere with 10% CO2. The media was removed after 24 hours and the cells were treated with 60 μM GR24 or with 60 μM 1A, 1B, 5A, 5B, 6A, or 7A and incubated for 24 hours at 37° C. in a humidified atmosphere with 10% CO2. In all experiments, the controls were treated with the same volume of DMSO as was used to dissolve compounds in compound-treated cells to show and ensure that the actual change in protein expression in different treatments was only due to the compounds […]. The media was removed, cells were washed with PBS and cell lysates were collected on ice. Proteins were extracted using RIPA buffer along with protease and phosphatase inhibitors. Lysates were centrifuged for 30 min at high speed; supernatant was collected and stored at −70° C. until further analysis.

[3] = system: phospho-ACC; test: phospho-ACC expression, immunoblot in 3T3 L1 preadipocytes; conditions: 24 hours; for phosphorylated ACC expression vs control: 3T3L1 preadipocytes, 100 μM
[4] = system: PGC-1α; test: PGC-1α protein expression, immunoblot and densitometry in 3T3 L1 preadipocytes; conditions: 3T3L1 preadipocytes, 100 μM, 24 hours

## CC1=CC(O/C=C2/C(=O)O[C@@H]3c4ccccc4C[C@H]23)OC1=O (stereo partly drawn) [GR24]
[1]
  SIRT1 protein expression compared to control: significant increase; also recorded: significantly (*P<0.05) increased
  SIRT1 protein expression vs control: significantly increased
[1]; listed as GR 24
  SIRT1 protein expression compared to control: significant increase; also recorded: significantly (*P<0.05) increased
  SIRT1 protein expression vs control: increase
[1]; 3T3 L1 preadipocytes, 60 μM
  SIRT1 expression compared with resveratrol: greater than did resveratrol
[1]; 3T3 L1 preadipocytes, 60 μM, control = 100%
  SIRT1 protein expression compared to control (100%): 168% and 164% and 198% and 220% and 149%
[2]
  PGC-1α protein expression compared to control (100%): 168% and 164% and 198% and 220% and 149%
[3]; 3T3 L1 preadipocytes, 60 μM
  phospho-ACC expression (phosphorylation of ACC) compared to control: no change
[3]
  phosphorylated ACC expression vs control: down-regulated
[3]; listed as GR 24
  phosphorylated ACC expression vs control: decrease
[4]
  PGC-1α expression vs control: significantly increased
[4]; listed as GR 24
  PGC-1α expression vs control: activation
